The source of these data is publication PMC9321043, “Synthesis, Structure–Activity Relationships, and Parasitological Profiling of Brussonol Derivatives as New Plasmodium falciparum Inhibitors” (Pharmaceuticals, 2022).

Assay [1] has as its system P. falciparum (3D7 strain). Briefly: In vitro antiplasmodial activity, P. falciparum blood-stage parasites, SYBR Green I. Particulars: Plasmodium falciparum, 3D7, 3D7 strain, Table 2 strain panel; read-out: IC50. The class given is cell-based, Plasmodium falciparum. As to the method:
The P. falciparum strains were cultivated in human blood cells (hRBC) O^+, while P. knowlesi was cultivated in rhesus red blood cells (rRBC) as described. P. falciparum complete RPMI (consisting of RPMI-1640, supplemented with 0.2% NaHCO3, 25 mM HEPES (pH 7.4), 11 mM D-glucose, 10 mg/L hypoxanthine, 25 mg/L gentamicin, and 0.5% (m/v) AlbuMAX II). The parasitemias of these cultures were maintained below 10% with 2.5% hematocrit. P. knowlesi complete RPMI (consisting of RPMI-1640 supplemented with 25 mM HEPES, […] hypoxanthine, 0.26% NaHCO3, 10 mg/L gentamicin, and 1% Albumax II). This culture was maintained with RBCs up to 5% hematocrit. The culture medium was changed daily, and all cultures were maintained under a 90% N2/5% CO2/5% O2 gas mixture at 37 °C. All compounds were purchased from Sigma-Aldrich (Cotia, Brazil).
The antiplasmodial activity of brussonol and derivatives was evaluated against P. falciparum blood parasites 3D7(chloroquine-sensitive). The parasites were synchronized through sterile 5% (m/v) D-sorbitol treatment over 10 min at 37 °C for the enrichment of ring stages. Centrifugation 600× g over 5 min was used to pellet the cultures. The parasitemia was determined by microscope analysis of thin blood smears stained with Giemsa 10% (v/v) after fixation with methanol. The initial parasitemia was calculated for 1000 red blood cells (RBCs), and cultures were diluted to 0.5% parasitemia and 2% hematocrit by the addition of the appropriate volumes of blood and medium. A total of 180 µL aliquots of parasites were distributed into 96-well plates followed by the addition of 20 µL of previously prepared aliquots of ten-fold concentrated compounds, the range of concentrations tested was 10–1.53 µM. Negative and positive control wells, which correspond to non-parasitized erythrocytes and parasite cultures in the absence of compounds, were set in parallel. The DMSO concentration was maintained below 0.05% (v/v) for all compounds except for brussonol, which was 0.5%. The plates were incubated for 72 h at 37 °C in a humidified incubator with a gas mixture of 90% N2, 5% O2, and 5% CO2. Each test was performed in duplicates, and the results were compared with the control cultures. Once completed incubation, the culture medium was removed, and the cells were resuspended in 100 µL PBS (116 mM NaCl, 10 mM NaH2PO4, 3 mM KH2PO4) and lysed with 100 µL lysis buffer (20 mM Tris base, 5 mM EDTA, 0.0008% (v/v) Triton X-100, 0.008% (m/v) saponin, pH 8.0) containing 0.002% (v/v) SYBR Green I. Plates were incubated for 30 min at room temperature, and a SpectraMAX Gemini EM plate reader (Molecular Devices Corp., Sunnyvale, CA) was used to determine the fluorescence corresponding to parasitic density (excitation at 485 nm, emission at 535 nm). The half-maximal inhibitory concentration (IC50^Pf) was determined by non-linear regression analysis of the resulting concentration–response curve using the software GraphPad Prism version 8.0.1 for Windows, GraphPad Software, San Diego, California USA, www.graphpad.com, accessed on 3 March 2022”.

The test system of assay [2] is P. falciparum TM90C6B strain. The assay can be described thus: Resistance assessment, TM90C6B strain. It counts as cell-based. As to conditions: Plasmodium falciparum.
Assay [3] has as its system cytosolic Ca^2+ in P. falciparum. The assay can be described thus: [Ca2+]cyt measurements in isolated parasites loaded with Fluo-4AM. The class given is cell-based, Plasmodium falciparum. As to the method: One of the compounds identified in the structural similarity search was the cyclopiazonic acid (CPA) (Figure 8a). […] Because of that, brussonol activity on the modulation of the SERCA pump was investigated. To assess the effect of brussonol on calcium mobilization in P. falciparum intraerythrocytic stages, isolated parasites loaded with Fluo-4-AM were exposed to 10 μM brussonol in MOPS Ca^2+ buffer. […] To verify if the brussonol-elicited [Ca^2+]cyt increment originated from the endoplasmic reticulum (ER), targeting the PfSERCA pump, CPA was added before the addition of brussonol. […] In the brussonol-pretreated parasites, the addition of CPA still increased the cytosolic Ca^2 + level (30 ± 5 nM) (Figure 8d).
Isolated parasites were incubated for 1 h at 37 °C with 5 μM of Fluo-4AM in 1 mL MOPS buffer (116 mM NaCl, 5.4 mM KCl, 0.8 mM MgSO4, 5.5 mM D-glucose, 50 mM MOPS, and 2 mM CaCl2, pH 7.2), with 1 mM probenecid to minimize compartmentalization and extrusion of probe. The parasites were washed three times with the same buffer and transferred to a quartz cuvette. Intracellular calcium was measured continuously using a Hitachi F-7000 spectrofluorimeter (Tokyo, Japan) by measurement of the fluorescence (λex = 488 nm and λem = 530 nm) at 37 °C, under agitation. When indicated, 10 µM of cyclopiazonic acid (CPA) or 10 µM of brussonol were added to the cuvette. Maximal fluorescence (Fmax) was determined after the lysis of with digitonin 0.15% (m/v), and minimal fluorescence (Fmin) was determined by adding 25 mM EGTA in 3 M Tris, pH 8.8, until no further decrease in fluorescence was observed. The cytosolic calcium concentration ([Ca^2+]cyt) was calculated from the fluorescence data (F) using a Kd value of 345 nM using the formula:Ca^2 +cyt = 345 × [(F − Fmin)/(Fmax − F)]
The results (n = 2) were analyzed through One-Way ANOVA with Tukey post-test. All compounds described here were purchased from Sigma-Aldrich (verificar local).

In the next assay the test system is P. falciparum K1 strain. Briefly: Resistance assessment, K1 strain. The class given is cell-based. As to conditions: Plasmodium falciparum.
Another assay concerns P. falciparum Dd2 strain. The assay can be described thus: Resistance assessment, Dd2 strain. It counts as cell-based. As to conditions: Plasmodium falciparum.
For the next assay, the system named is P. falciparum. Briefly: Speed-of-action assay. It counts as cell-based, Plasmodium falciparum. Particulars: for speed of action: IC50 compared after 24, 48 and 72 h of drug exposure; for time of parasite death (morphological development, pyknotic nuclei): highest concentration evaluated, Giemsa smears at 0, 24, 48, 72 h. As to the method:
The speed-of-action assay assesses the inhibitory activity of the tested compounds after 24, 48, and 72 h of drug exposure. […] Moreover, to confirm the speed-of-action, the morphological development of the parasite in parallel with the IC50 assessment was verified. The parasites in the negative control wells developed according to the expected timeline (Figure 5a). […] Brussonol caused parasite death within the first 24 h of incubation as observed for artesunate (Figure 5a).
In this method, three 96-well plates were prepared by adding 180 µL of the parasite’s inoculum with 0.5% parasitemia and 2% hematocrit. A serial dilution of the compounds was added to each plate; the starting concentration for brussonol was 6× IC50, while for artesunate and pyrimethamine (fast- and slow-acting controls, respectively) were 10× IC50. In addition, a positive and negative control, which corresponded to parasite cultures with no addition of inhibitor and non-parasitized erythrocytes, respectively, were used for the parasite’s control growth. Each plate was treated for a different period (24, 48, or 72 h), and the first two plates were washed twice with fresh medium to remove the inhibitor, followed by incubation of 48 and 24 h, respectively. […] A statistical analysis using a one-way ANOVA test was done to compare each time point using GraphPad Prism version 8.0.1 for Windows, GraphPad Software, San Diego, California USA, www.graphpad.com, accessed on 1 February 2022. In parallel, the morphological development of the parasite under the compounds’ pressure was assessed by adding the compounds tested at the highest concentration evaluated. Blood smears of each well were made and stained at time points 0, 24, 48, and 72 h.

In a further assay the test system is hemozoin formation. The assay can be described thus: Hemozoin formation inhibition assay. It counts as biochemical. Particulars: hemin 25 µM, pH 4.8, 4 h, one experiment in triplicate. As to the method:
2. Hemozoin Formation Inhibition Assay
The hemozoin formation inhibition assay was performed as described previously.12 Briefly, serial 1:3 dilutions, in a 96‐well plate, wit h brussonol were made in a final volume of 20 μL in a concentration 10 times higher than the final concentration of the assay. Secondly, 90 μ L of freshly prepared hemin (at a final concentration of 25 μM) solution in 1M NaOAc/HOAc buffer pH 4.8 were added followed by addition of 90 μ L of 5.4 mg/L Tween 20 solution freshly prepared. The plates were let to stand for 4 hours at 37 °C followed by resuspension with multichannel pippete and read at 415 and 630 nm using a SpectraMAX Plus 384 plate reader (Molecular Devices Corp., Sunnyvale, CA).
Due to the absence of enough compound, this experiment wa s performed only once, but with internal triplicate. Chloroquine (CQ) and pyrimethamine (PYR) were used as positive and negative control of inhibition, respectively.
Inhibition (%) = 100 – 100 x [(Aco ntro l – Asample) / (Acontrol - Amin)] Acontrol is the difference of the absorbance at 415 and 630 nm of the negative control (Hemin +, Tween 20 ‐, Compound ‐); Amin is the difference of the absorbance at 415 and 630 nm of the positive control (Hemin +, Tween 20 +, Compound ‐ ); Asample is the difference of the absorbance at 415 and 630 nm of the sample. The hemozoin formation inhibition assay was performed to evaluate if brussonol act inhibiting hemozoin formation in P. falciparum. CQ, which is a well‐known inhibitor of hemozoin […]
Figure S1. Hemozoin formation inhibition assay. Different concentrations of CQ (black triangles), PYR (red squares) and brussonol (blue circles) were incubated with heme in triplicates. Th e absorbance was recorded at 415/630 nm to determine the hemozoin formation inhibition. […]

The subject of assay [4] is P. falciparum 3D7^r_MMV848 strain. Briefly: Resistance assessment, 3D7r-MMV848 strain. As to conditions: Plasmodium falciparum. The class given is cell-based.

By IC50 is commonly meant the concentration that inhibits the measured activity by half.

`O=C1C(O)=C([C@H]2CC[C@H](c3ccc(Cl)cc3)CC2)C(=O)c2ccccc21` [atovaquone, reference compound]: the IC50 in assay [1] stood at 0.7 ± 0.3 nM; in assay [2], 3000 ± 1000 nM.
As to cyclopiazonic acid [reference compound], the “[Ca^2+]cyt rise in brussonol-pretreated parasites” value in assay [3] (10 µM CPA added after 10 µM brussonol) came out at 30 ± 5 nM. Besides, the “[Ca^2+]cyt rise” value in assay [3] (10 µM compound alone, MOPS Ca^2+ buffer, relative to basal level) turned out to be 23 ± 2 nM.
Take `CCc1nc(N)nc(N)c1-c1ccc(Cl)cc1` [pyrimethamine]: the IC50 was 60 ± 10 nM in assay [1], greater than 10000 nM in the assay with P. falciparum K1 strain and greater than 10000 nM in the assay with P. falciparum Dd2 strain. The speed of action entry in the assay with P. falciparum was “slow-acting inhibitor”. For the same molecule, the “time of parasite death (morphological development, pyknotic nuclei)” value in the assay on P. falciparum was “at the 48 and 72 h time points”. In addition, the “hemozoin formation inhibition (in words)” value in the assay on hemozoin formation was “no inhibition profile up to 1.4 mM”.
In the case of `C[C@H]1[C@H](OC(=O)CCC(=O)O)O[C@@H]2O[C@@]3(C)CC[C@H]4[C@H](C)CC[C@@H]1[C@@]24OO3` [artesunate], the IC50 in assay [1] came out at 8 ± 4 nM; with P. falciparum K1 strain, 7 ± 3 nM; in the assay on P. falciparum Dd2 strain, 11 ± 8 nM; in assay [2], 6 ± 2 nM; in assay [4], 13 ± 8 nM. Moreover, in the assay on P. falciparum, the speed of action result is “fast-acting inhibitor”. For the same molecule, the “time of parasite death (morphological development, pyknotic nuclei)” value with P. falciparum is no more than 24 h.
